Data: patent US10688093B2, “Methods, compositions, and uses of novel Fyn kinase inhibitors” (priority 2015, dated 2020)
pIC50: −log10 of the molar value.

Target: full-length recombinant human FYN A (Homo sapiens (Human), UniProt P06241)
Experiment: ADP-Glo Kinase Assay of FYN kinase inhibition
Type: biochemical
Conditions: primary screen, initial compounds
Outline: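 ADP-Glo read-out of peptide phosphorylation after 90 min RT with 12.5 pmol ATP and 100 pg 12-mer substrate. Enzyme was N-GST full-length human FYN A from insect cells, 3 pg, pre-incubated 30 min with compound, 10 points from 10 μM top, 3-fold steps; IC50 from curve.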

Chain of full-length recombinant human FYN A (P06241 whole entry): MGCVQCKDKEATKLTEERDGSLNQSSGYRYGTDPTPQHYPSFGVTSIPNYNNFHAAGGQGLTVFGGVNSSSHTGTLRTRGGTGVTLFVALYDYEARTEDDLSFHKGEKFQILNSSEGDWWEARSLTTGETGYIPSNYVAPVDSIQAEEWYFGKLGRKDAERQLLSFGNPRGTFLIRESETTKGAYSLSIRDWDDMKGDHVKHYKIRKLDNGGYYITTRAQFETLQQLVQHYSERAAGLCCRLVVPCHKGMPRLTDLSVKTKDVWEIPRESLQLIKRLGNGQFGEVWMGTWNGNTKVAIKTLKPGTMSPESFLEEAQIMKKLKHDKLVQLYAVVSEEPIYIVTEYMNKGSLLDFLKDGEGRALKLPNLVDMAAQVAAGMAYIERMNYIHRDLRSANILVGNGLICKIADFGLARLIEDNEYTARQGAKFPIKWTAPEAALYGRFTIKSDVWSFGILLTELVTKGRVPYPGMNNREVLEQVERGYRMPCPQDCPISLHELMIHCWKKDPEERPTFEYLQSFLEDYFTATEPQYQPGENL

Structure (SMILES)	pIC50
O=C(NCCO)c1cccc(-c2cn3c(-c4ccsc4)cnc3cn2)c1 [Compound 224, N-(2-hydroxyethyl)-3-[3-(3-thienyl)imidazo [1,2-a]pyrazin-6-yl]benzamide]	5.44
c1cc(-c2cn3c(-c4ccsc4)cnc3cn2)cs1 [Compound 227, 3,6-bis(3-thienyl)imidazo [1,2-a]pyrazine]	5.07
CN(C)CCNC(=O)c1ccc(-c2cn3c(-c4ccsc4)cnc3cn2)cc1 [Compound 228, N-(2-dimethylamino-ethyl)-4-[3-(3-thienyl)imidazo [1,2-a]pyrazin-6-yl]benzamide]	5.72
Cn1cc(-c2cnc3cnc(-c4ccccc4Oc4ccccc4)cn23)cn1 [Compound 229, 3-(1-methylpyrazol-4-yl)-6-(2-phenoxyphenyl) imidazo[1,2-a]pyrazine]	5.74
CN(C)CCCOc1ccc(-c2cn3c(-c4ccc5c(c4)OCO5)cnc3cn2)cn1 [Compound 231, 3-[[5-[3-(1,3-benzodioxol-5-yl)imidazo[1,2-a]pyrazin-6-yl]-2-pyridyl]oxy]-N,N-dimethyl-propan-1-amine]	5.01
CN(C)CCCNC(=O)c1ccc(-c2cn3c(-c4ccc(Cl)cc4)cnc3cn2)cc1 [Compound 236, 4-[3-(4-chlorophenyl)imidazo[1,2-a]pyrazin-6-yl]-N-[3-(dimethylamino)propyl]benzamide]	5.31
CN(C)CCNC(=O)c1ccc(-c2cn3c(-c4ccc5c(c4)OCO5)cnc3cn2)cc1 [Compound 237, 4-[3-(1,3-benzodioxol-5-yl)imidazo[1,2-a]pyrazin-6-yl]-N-(2-dimethyl-aminoethyl) benzamide]	5.42
CN(C)CCNC(=O)c1ccc(-c2cn3c(-c4cccc(O)c4)cnc3cn2)cc1 [Compound 239, N-(2-dimethylamino-ethyl)-4-[3-(3-hydroxyphenyl)imidazo[1,2-a]pyrazin-6-yl]benzamide]	6.09
CN(C)CCNC(=O)c1ccc(-c2cn3c(-c4ccc(Cl)cc4)cnc3cn2)cc1 [Compound 240, 4-[3-(4-chlorophenyl)imidazo[1,2-a]pyrazin-6-yl]-N-(2-dimethylamino-ethyl)benzamide]	5.38
CN(C)CCCNC(=O)c1ccc(-c2cn3c(-c4cccc(O)c4)cnc3cn2)cc1 [Compound 242, N-[3-(dimethylamino)propyl]-4-[3-(3-hydroxyphenyl)imidazo[1,2-a]pyrazin-6-yl]benzamide]	5.79
CN(C)CCCNC(=O)c1ccc(-c2cn3c(-c4ccc5c(c4)OCO5)cnc3cn2)cc1 [Compound 244, 4-[3-(1,3-benzodioxol-5-yl)imidazo[1,2-a]pyrazin-6-yl]-N-[3-(dimethylamino)propyl]benzamide]	5.22
CN(C)C(=O)c1cccc(-c2cnc3sc(NC4CCCCC4)nn23)c1 [Compound 251, 3-[2-(cyclo-hexylamino)imidazo[2,1-a] [1,3,4]thiadiazol-5-yl]-N,N-dimethyl-benzamide]	6.14
CN(C)C(=O)c1cccc(-c2cnc3sc(NCCc4ccc(S(N)(=O)=O)cc4)nn23)c1 [Compound 252, N,N-dimethyl-3-[2-[2-(4-sulfamoylphenyl)ethylamino]imidazo[2,1-a] [1,3,4]thiadiazol-5-yl]benzamide]	6.04
CN(C)C(=O)c1cccc(-c2cnc3sc(NC4CCC(O)CC4)nn23)c1 (stereo not drawn) [Compound 253, 3-[2-[(4-hydroxycyclo-hexyl)amino]imidazo[2,1-b] [1,3,4]thiadiazol-5-yl]-N,N-dimethyl-benzamide]	6.27
CC(=O)c1cccc(-c2cnc3sc(NC4CCC(O)CC4)nn23)c1 (stereo not drawn) [Compound 254, 1-[3-[2-[(4-hydroxycyclo-hexyl)amino]imidazo[2,1-a] [1,3,4]thiadiazol-5-yl]phenyl] ethanone]	6.31
COc1ccc(-c2cnn3c(N)c(-c4cccc(Cl)c4)cnc23)cc1OC [Compound 255, 6-(3-chlorophenyl)-3-(3,4-dimethoxyphenyl) pyrazolo[1,5-a]pyrimidin-7-amine]	6.09
CC(=O)Nc1cccc(-c2cnc3sc(NCc4ccco4)nn23)c1 [Compound 256, N-[3-[2-(2-furylmethylamino)imidazo[2,1-a] [1,3,4]thiadiazol-5-yl]phenyl] acetamide]	5.34
CN(C)C(=O)c1cccc(-c2cnc3sc(NCC4CC4)nn23)c1 [Compound 257, 3-[2-(cyclopropyl-methylamino)imidazo[2,1-d] [1,3,4]thiadiazol-5-yl]-N,N-dimethyl-benzamide]	6.01
CC(C)CNc1nn2c(-c3cccc(C(=O)N(C)C)c3)cnc2s1 [Compound 258, 3-[2-(isobutylamino)imidazo[2,1-d] [1,3,4]thiadiazol-5-yl]-N,N-dimethyl-benzamide]	6.55
CN(C)C(=O)c1cccc(-c2cnc3sc(NCc4ccc(F)cc4)nn23)c1 [Compound 259, 3-[2-[(4-fluorophenyl)methylamino]imidazo[2,1-b] [1,3,4]thiadiazol-5-yl]-N,N-dimethyl-benzamide]	5.56
CC(=O)Nc1cccc(-c2cnc3sc(NCc4cccs4)nn23)c1 [Compound 260, N-[3-[2-(2-thienylmethyl-amino)imidazo [2,1-b] [1,3,4]thiadiazol-5-yl]phenyl] acetamide]	5.41
Cn1cc(-c2cnc3sc(NCCc4ccc(S(N)(=O)=O)cc4)nn23)cn1 [Compound 261, 4-[2-[[5-(1-methylpyrazol-4-yl)imidazo[2,1-d][1,3,4]thiadiazol-2-yl]amino]ethyl] benzene-sulfonamide]	5.65
CN(C)c1cccc(-c2cnc3sc(NC4CCC(O)CC4)nn23)c1 (stereo not drawn) [Compound 262, 4-[[5-[3-(dimethylamino)phenyl]imidazo [2,1-a] [1,3,4]thiadiazol-2-yl]amino] cyclohexanol]	5.24
CC(C)CNc1nn2c(-c3cccc(NS(C)(=O)=O)c3)cnc2s1 [Compound 263, N-[3-[2-(isobutylamino)imidazo[2,1-b] [1,3,4]thiadiazol-5-yl]phenyl] methane-sulfonamide]	5.15
NC(=O)c1cccc(-c2cnc3sc(NCCCO)nn23)c1 [Compound 264, 3-[2-(3-hydroxypropyl-amino)imidazo [2,1-b][1,3,4]thiadiazol-5-yl]benzamide]	5.54
Oc1ccc(-c2cnc3sc(NC4CCC(O)CC4)nn23)cc1 (stereo not drawn) [Compound 265, 4-[2-[(4-hydroxycyclo-hexyl)amino]imidazo[2,1-b] [1,3,4]thiadiazol-5-yl]phenol]	5.42

Other lines, results leading:

pIC50	Structure (SMILES)
5.15	CN1CCN(c2ccc(-c3cn4c(-c5ccsc5)cnc4cn3)cn2)CC1 [Compound 225, 6-[6-(4-methylpiperazin-1-yl)-3-pyridyl]-3-(3-thienyl)imidazo [1,2-a]pyrazine]
5.61	Nc1ccc(-c2cn3c(-c4ccsc4)cnc3cn2)cn1 [Compound 226, 5-[3-(3-thienyl)imidazo [1,2-a]pyrazin-6-yl]pyridin-2-amine]
5.50	CN1CCN(c2ccc(-c3cn4c(-c5cccc(O)c5)cnc4cn3)cn2)CC1 [Compound 230, 3-[6-[6-(4-methylpiperazin-1-yl)-3-pyridyl]imidazo [1,2-a]pyrazin-3-yl]phenol]
5.17	CCOc1cccc(-c2cn3c(-c4cccc(O)c4)cnc3cn2)c1 [Compound 232, 3-[6-(3-ethoxyphenyl)imidazo[1,2-a]pyrazin-3-yl]phenol]
5.10	CN1CCN(c2ccc(-c3cn4c(-c5ccc6c(c5)OCO6)cnc4cn3)cc2)CC1 [Compound 233, 3-(1,3-benzodioxol-5-yl)-6-[4-(4-methylpiperazin-1-yl)phenyl] imidazo[1,2-a]pyrazine]
5.60	Oc1cccc(-c2cnc3cnc(-c4ccsc4)cn23)c1 [Compound 234, 3-[6-(3-thienyl)imidazo [1,2-a]pyrazin-3-yl]phenol]
5.80	CN1CCN(c2ccc(-c3cn4c(-c5cccc(O)c5)cnc4cn3)cc2)CC1 [Compound 235, 3-[6-[4-(4-methyl-piperazin-1-yl)phenyl]imidazo [1,2-a]pyrazin-3-yl]phenol]
5.54	Nc1ccc(-c2cn3c(-c4cccc(O)c4)cnc3cn2)cn1 [Compound 238, 3-[6-(6-amino-3-pyridyl)imidazo [1,2-a]pyrazin-3-yl]phenol]
5.53	Oc1cccc(-c2cnc3cnc(-c4ccc(NCCN5CCOCC5)nc4)cn23)c1 [Compound 241, 3-[6-[6-(2-morpholino-ethylamino)-3-pyridyl]imidazo [1,2-a]pyrazin-3-yl]phenol]
5.76	O=C(NCCO)c1ccc(-c2cn3c(-c4cccc(O)c4)cnc3cn2)cc1 [Compound 243, N-(2-hydroxyethyl)-4-[3-(3-hydroxyphenyl)imidazo[1,2-a]pyrazin-6-yl]benzamide]
4.96	CN1CCN(c2ccc(-c3cn4c(-c5ccccc5)cnc4cn3)cn2)CC1 [Compound 245, 6-[6-(4-methylpiperazin-1-yl)-3-pyridyl]-3-phenyl-imidazo[1,2-a]pyrazine]
5.58	CC(C)N1CCN(c2ccc(-c3cn4c(-c5cccc(O)c5)cnc4cn3)cc2)CC1 [Compound 246, 3-[6-[4-(4-isopropyl-piperazin-1-yl)phenyl]imidazo [1,2-a]pyrazin-3-yl]phenol]
4.99	Nc1ccc(-c2cn3c(-c4ccc5c(c4)OCO5)cnc3cn2)cn1 [Compound 247, 5-[3-(1,3-benzodioxol-5-yl)imidazo[1,2-a]pyrazin-6-yl]pyridin-2-amine]
5.88	CN(C)CCCOc1ccc(-c2cn3c(-c4ccc(O)cc4)cnc3cn2)cn1 [Compound 248, 4-[6-[6-[3-(dimethylamino)propoxy]-3-pyridyl]imidazo [1,2-a]pyrazin-3-yl]phenol]
5.88	Oc1ccc(-c2cnc3cnc(-c4ccc(NCCN5CCOCC5)nc4)cn23)cc1 [Compound 249, 4-[6-[6-(2-morpholino-ethylamino)-3-pyridyl]imidazo [1,2-a]pyrazin-3-yl]phenol]
5.66	CN1CCN(c2ccc(-c3cn4c(-c5ccc(O)cc5)cnc4cn3)cn2)CC1 [Compound 250, 4-[6-[6-(4-methylpiperazin-1-yl)-3-pyridyl]imidazo [1,2-a]pyrazin-3-yl]phenol]
